Source: PubChem BioAssay AID330 (DTP/NCI, 2004)
“And” between values parts separate entries of the source, which are not always exact repeats. Equal values may be shown once. Toxic doses and inconclusive results are not listed.

System: P388 leukemia ip, CD2F1 mice, survival T/C
Experiment: NCI In Vivo Anticancer Drug Screen. Data for tumor model P388 Leukemia (intraperitoneal) in CD2F1 (CDF1) mice
Conditions: endpoint: median survival time, higher = longer survival
Method in brief: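 Mice carrying the transplanted tumor received test compound or vehicle. Survival was recorded in each group, and the value is the treated-group measurement divided by that of the vehicle-treated control group.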

[1] = dose: 50.0 mg/kg/injection, schedule: Q01DX009 (ip), vehicle: Klucel (hydroxypropylcellulose) (HPC)
[2] = dose: 100.0 mg/kg/injection, schedule: Q01DX009 (ip), vehicle: Klucel (hydroxypropylcellulose) (HPC)
[3] = dose: 100.0 mg/kg/injection, schedule: Q01DX001 (ip), vehicle: saline with Tween-80
[4] = dose: 200.0 mg/kg/injection, schedule: Q01DX001 (ip), vehicle: saline with Tween-80
[5] = dose: 50.0 mg/kg/injection, schedule: Q01DX005 (ip), vehicle: Klucel (hydroxypropylcellulose) (HPC)
[6] = dose: 100.0 mg/kg/injection, schedule: Q01DX005 (ip), vehicle: Klucel (hydroxypropylcellulose) (HPC)

SMILES: Cc1oc(-c2cccc(F)c2)nc1C(N)=O
- T/C [1]: 102 % of control
- T/C [2]: 102 % of control
- T/C (dose: 200.0 mg/kg/injection, schedule: Q01DX009 (ip), vehicle: Klucel (hydroxypropylcellulose) (HPC)): 100 % of control

SMILES: O=C(c1ccccc1)c1cnc2ccccn12
- T/C (dose: 100.0 mg/kg/injection, schedule: Q04DX003 (ip), vehicle: Klucel (hydroxypropylcellulose) (HPC)): 100 % of control
- T/C (dose: 200.0 mg/kg/injection, schedule: Q04DX003 (ip), vehicle: Klucel (hydroxypropylcellulose) (HPC)): 100 % of control

SMILES: O=C1Cc2ccccc2C(=O)N1NCCO
- T/C [3]: 103 % of control
- T/C [4]: 102 % of control
- T/C (dose: 400.0 mg/kg/injection, schedule: Q01DX001 (ip), vehicle: saline with Tween-80): 94 % of control

SMILES: CCCC(=O)OCc1ccc(Cl)c(Cl)c1
- T/C (dose: 25.0 mg/kg/injection, schedule: Q04DX003 (ip), vehicle: saline): 100 % of control
- T/C (dose: 50.0 mg/kg/injection, schedule: Q04DX003 (ip), vehicle: saline): 104 % of control
- T/C (dose: 100.0 mg/kg/injection, schedule: Q04DX003 (ip), vehicle: saline): 100 % of control

SMILES: O=C(O)c1c(Cl)n(-c2ccccc2)c2c(C(=O)O)cccc12
- T/C (dose: 100.0 mg/kg/injection, schedule: Q01DX001 (ip), vehicle: Klucel (hydroxypropylcellulose) (HPC)): 97 % of control
- T/C (dose: 200.0 mg/kg/injection, schedule: Q01DX001 (ip), vehicle: Klucel (hydroxypropylcellulose) (HPC)): 97 % of control
- T/C (dose: 400.0 mg/kg/injection, schedule: Q01DX001 (ip), vehicle: Klucel (hydroxypropylcellulose) (HPC)): 97 % of control

SMILES: c1ccc2c3cc(cc2c1)OCCOCCOCCOc1ccc2ccccc2c1-c1c(ccc2ccccc12)OCCOCCOc1ccc2ccccc2c1-3
- T/C [3]: 97 % of control
- T/C [4]: 94 % of control

SMILES: COc1cc(OC)c(NC(=O)CC2SC(N)=NC2=O)cc1Cl (stereo not drawn)
- T/C [1]: 97 % of control
- T/C [2]: 97 % of control

SMILES: C/C=C1\CN2CCC34c5ccc(OC)cc5N(C)C3C2CC1C4C(=O)OC (stereo not drawn)
- T/C (dose: 17.25 mg/kg/injection, schedule: Q01DX005 (ip), vehicle: acid diluted with saline): 96 % of control
- T/C (dose: 34.5 mg/kg/injection, schedule: Q01DX005 (ip), vehicle: acid diluted with saline): 94 % of control

SMILES: O=C1c2[nH]cnc2N(Cc2ccc(Cl)cc2)C2=NCCN12
- T/C [5]: 102 % of control
- T/C [6]: 100 % of control

SMILES: CCOC(=O)C1=C(c2ccco2)NN=C(c2ccccc2)C1
- T/C (dose: 50.0 mg/kg/injection, schedule: Q01DX005 (ip), vehicle: saline with Tween-80): 101 % of control
- T/C (dose: 100.0 mg/kg/injection, schedule: Q01DX005 (ip), vehicle: saline with Tween-80): 103 % of control
- T/C (dose: 200.0 mg/kg/injection, schedule: Q01DX005 (ip), vehicle: saline with Tween-80): 94 % of control

SMILES: NCCSC(C[N+](=O)[O-])c1ccc2c(c1)OCO2 (stereo not drawn)
- T/C (dose: 12.5 mg/kg/injection, schedule: Q01DX009 (ip), vehicle: saline with Tween-80): 119 % of control
- T/C (dose: 25.0 mg/kg/injection, schedule: Q01DX009 (ip), vehicle: saline with Tween-80): 124 % of control

SMILES: O=S(CCCl)CCCl
- T/C (dose: 6.25 mg/kg/injection, schedule: Q01DX001 (ip), vehicle: saline): 117 % of control
- T/C (dose: 12.5 mg/kg/injection, schedule: Q01DX001 (ip), vehicle: saline): 152 % of control

SMILES: COc1ccccc1C1(O)c2ccccc2C(=O)c2ccccc21
- T/C [5]: 101 % of control
- T/C [6]: 99 % of control
- T/C (dose: 200.0 mg/kg/injection, schedule: Q01DX005 (ip), vehicle: Klucel (hydroxypropylcellulose) (HPC)): 103 % of control

SMILES: CN=C(N)N/N=C/c1ccc2c(c1)Cc1ccccc1-2
- T/C (dose: 6.25 mg/kg/injection, schedule: Q04DX002 (ip), vehicle: saline with Tween-80): 106 % of control and 122 % of control
- T/C (dose: 12.5 mg/kg/injection, schedule: Q04DX002 (ip), vehicle: saline with Tween-80): 109 % of control
- T/C (dose: 25.0 mg/kg/injection, schedule: Q04DX002 (ip), vehicle: saline with Tween-80): 107 % of control
- T/C (dose: 50.0 mg/kg/injection, schedule: Q04DX002 (ip), vehicle: saline with Tween-80): 119 % of control and 124 % of control
- T/C (dose: 100.0 mg/kg/injection, schedule: Q04DX002 (ip), vehicle: saline with Tween-80): 118 % of control

SMILES: N=C(N)N
- T/C (dose: 50.0 mg/kg/injection, schedule: Q01DX009 (ip), vehicle: saline with Tween-80): 100 % of control
- T/C (dose: 100.0 mg/kg/injection, schedule: Q01DX009 (ip), vehicle: saline with Tween-80): 100 % of control

SMILES: CN1CCN(CC2C3CCC(C3)C2O)CC1 (stereo not drawn)
- T/C (dose: 25.0 mg/kg/injection, schedule: Q01DX005 (ip), vehicle: saline): 100 % of control
- T/C (dose: 50.0 mg/kg/injection, schedule: Q01DX005 (ip), vehicle: saline): 97 % of control
- T/C (dose: 100.0 mg/kg/injection, schedule: Q01DX005 (ip), vehicle: saline): 96 % of control
- T/C (dose: 200.0 mg/kg/injection, schedule: Q01DX005 (ip), vehicle: saline): 99 % of control
